Drawing on ChEMBL document CHEMBL3507680, “University of Dundee, Gates Library screen for HepG2 cell viability”, this text covers cytotoxicity for 38 molecules.

Molecules are shown by their SMILES.

This data set in a line: Human HepG2 cell viability assay in 384 well format. It counts as toxicity, cell-based. The arrangement: dose 125 nL, time 70.5 hour; cytotoxicity at 70.5 h: concentration not given beside the values. The settings on record: HepG2 cells, read-out: Inhibition.

For `c1ncc2c(n1)CN(CC1CCCCO1)CC2` (stereo not drawn), the cytotoxicity at 70.5 h stood at 6.75%. Under `COc1ccc(-c2nnc([C@H]3CCN(CC4CC4)C3)o2)cc1` stands 2.78%. `CN1CCOC[C@H]1c1nc(-c2ccc(F)cc2F)c[nH]1`: the cytotoxicity at 70.5 h is -0.919%. Under `O=C(CCc1cc(O)no1)N1CCCC(COc2ccc(F)cc2)C1` (stereo not drawn) stands -3.78%. With `CCCN1CCN(C(=O)c2cnccn2)[C@H]2CS(=O)(=O)C[C@H]21`, the cytotoxicity at 70.5 h is -0.654%. Next, `O=C(COCc1ccccc1)N1CCC(OCc2cccnc2)CC1`: -3.09%. As to `Cc1cccnc1CNCC1(O)CCCN(CC2CCCCC2)C1=O` (stereo not drawn), the cytotoxicity at 70.5 h was -7.77%. Next, `CCc1cc(N[C@H]2CC[C@H](O)CC2)n2nc(C)c(C)c2n1`: -0.423%; `Cc1ccc(OC2(C(=O)O)CCN(C(=O)c3ccc(F)cc3)CC2)cn1`: -7.2%.

On to `CC(C)c1ncc(CN2C[C@@H](CN3CCC(CO)CC3)[C@@H](CO)C2)cn1`, for which the cytotoxicity at 70.5 h was -6.31%. Next, `Nc1nc2c(c(=O)[nH]1)CCN(C(=O)c1cccc3nccnc13)C2`: -13.2%; `CC(=O)c1ccc(N2CCCC(CO)(CCOc3ccccc3)C2)nc1` (stereo not drawn): -13.1%; `CC(C)c1nccn1CCCNC(=O)c1ccc(-c2cncnc2)nc1`: -9.84%. For the molecule `NC(=O)c1cccc(CC2CCN(C(=O)CCCN3CCOCC3)C2)c1` (stereo not drawn), the cytotoxicity at 70.5 h is -4.93%. Next, `Nc1nccc(NCc2cc3n(n2)CCCN(C2CCCCC2)C3)n1`: -1.68%; `Cc1nc(CN2CCCC(Cn3cc(CCO)nn3)C2)c[nH]1` (stereo not drawn): -1.03%; `Cc1ccccc1N1CCCN(C(=O)CCCS(N)(=O)=O)CC1`: 15.2%. Under `Cc1nc2c(c(N3CC=CC3)n1)CCN(Cc1ccoc1)CC2` stands -2.75%; under `Cc1nccn1CCC1CCCCN1Cc1ccncc1` (stereo not drawn), 3.75%. For the molecule `O=C(O)c1coc(COc2cccc(F)c2)n1`, the cytotoxicity at 70.5 h was -4.11%. Under `COc1ccc(F)c(CN2CCC3(CCC(=O)N(CC(N)=O)C3)CC2)c1` stands 5.8%; under `CN(C)C(=O)NCc1cc2n(n1)CCN(C[C@H]1[C@@H]3CNC[C@@H]31)C2`, 15.7%; under `CC(C)n1ccnc1C1CCN(Cc2ccc(Cl)s2)CC1`, -8.66%. Next, `CCC(=O)N1CC[C@@H](c2ccc3ccccc3c2)[C@H](O)C1`: -10.5%. Next, `Cn1c(CN2CCOCC2)nnc1C1CCN(C(=O)C2CCCC2)CC1`: 2.41%; `CCc1cnc(C)nc1NCCN1CCCCCC1`: -11.6%; `Cc1ncccc1OCC(=O)N1CCN[C@H]2CS(=O)(=O)C[C@H]21`: -11.5%. For `CC(=O)N1CCN(c2cc(-c3ccccc3)nc3c(C)c(C)nn23)CC1`, the cytotoxicity at 70.5 h was determined as 0.357%.

For the molecule `CC1CCN(S(=O)(=O)NCC2CCOc3ccccc3C2)CC1` (stereo not drawn), the cytotoxicity at 70.5 h was -7.61%. Next, `CC(C)C1CN(c2ncccn2)CCC(=O)N1Cc1ccc(F)cc1` (stereo not drawn): 1.56%; `CC(=O)Nc1cccc(C(=O)Nc2cnc3n2CCCC3)c1`: -5.75%; `COc1ccccc1CN(C)c1nccc(-c2cn(C)nc2C)n1`: -8.86%. Next, `O=C1CC2(CCN(CC3CCOC3)CC2)CN1Cc1cc(F)cc(F)c1` (stereo not drawn): -6.96%; `CC[C@@]1(O)CCN(C(=O)c2ccc(SC)cc2)C[C@H]1O`: 0.602%. Consider `Cc1cccc2[nH]c(C3CCN(C(=O)c4ccnn4C)CC3)nc12`, for which the cytotoxicity at 70.5 h turned out to be 0.0948%. For `Cc1cc(=O)[nH]c(NCCNC(=O)C(c2ccc(F)cc2)N(C)C)n1` (stereo not drawn), the cytotoxicity at 70.5 h came out at 11.9%.

Regarding `CCC[C@@H]1CN(S(=O)(=O)c2ccc(C)c(F)c2)C[C@H]1N(C)C`, the cytotoxicity at 70.5 h came to 0.773%. Under `CCCOCCCNc1nccc(-c2cn(C)nc2C)n1` stands -4.32%.
